In patent US11357229B2, “Composition, uses and preparation process thereof, as well as method to ensure high corn crop yield” (priority 2011, dated 2022):

What was measured:
Type in all cases: in vivo, Zea mays
corn [1] = test: Ethephon applied to corn at stage V8, Nova Mutum; methomyl and pyraclostrobin+epoxyconazole added in all treatments; settings: V8, 5 g ha^−1 a.i.
Protocol: Example 1—Effect of Growth Regulator Ethephon Applied to Corn at the Stage of Development V8
(§1) In the moment of the application, the insecticide methomyl (215 g ha^−1 a.i.) and the fungicide pyraclostrobin+epoxyconazole (99.75+37.5 g ha^−1 a.i.) were added in all treatments, including the control.

corn [2] = test: Ethephon applied to corn at stage V6, Nova Mutum; chlorantraniliprole and cyproconazole+azoxystrobin added in all treatments; settings: V6, 5 g ha^−1 a.i.
Protocol: Example 2—Effect of Growth Regulator Ethephon Applied to Corn at the Stage of Development V6
(§2) In the moment of the application, the insecticide chlorantraniliprole (25 g ha^−1 a.i.) and the fungicide cyproconazole+azoxystrobin (24+60 g ha^−1 a.i.) were added in all treatments, including the control.

corn [3] = test: BF 428-5 applied to corn at stage V8, Nova Mutum; methomyl and pyraclostrobin+epoxyconazole added in all treatments; settings: for Increased Yield: 100,000 plants/ha vs control at normal density
Protocol: Example 5—Effect of Growth Regulator BF 428-5 Applied to Corn at the Stage of Development V8
as §1

corn [4] = test: BF 428-5 applied to corn at stage V6, Nova Mutum; chlorantraniliprole and cyproconazole+azoxystrobin added in all treatments; settings: for Height (shoot length): 30 DAA; for Increased Yield: 100,000 plants/ha vs control at normal density
Protocol: Example 6—Effect of Growth Regulator BF 428-5 Applied to Corn at the Stage of Development V6
as §2

CSC(=O)c1cccc2nnsc12 [Acybenzolar-S-methyl, acybenzolar-S-methyl]
Ear Diameter (corn [1]): 53.7 mm
Ear Length (corn [1]): 26.5 cm
Yield (corn [1]): 4815.6 kg/ha
Height (shoot length) (corn [1]; 30 DAA): 206.8 cm
Population of corn plants 60,000 plants/ha, kg/corn plant (corn [1]; 60,000 plants/ha): 0.080 kg/corn plant
Ear Diameter (corn [2]): 34.7 mm
Ear Length (corn [2]): 21.9 cm
Yield (corn [2]): 2662.2 kg/ha
Height (shoot length) (corn [2]; 30 DAA): 195.2 cm
Population of corn plants 60,000 plants/ha, kg/corn plant (corn [2]; 60,000 plants/ha): 0.044 kg/corn plant

C[N+](C)(C)CCCl [BF 428-05, chlormequat chloride]
effects on the corn plant (corn [3]; V8): reduction in shoot length, increased formation of adventitious roots, strengthening of the stem, strengthening of the root system, increased ventilation in the culture, proper development of male and female inflorescences
effect on length and diameter of ears of corn (corn [3]; V8 (Table 9)): does not reduce
yield reduction (corn [3]; V8 (Table 9)): no yield reduction
shoot length (corn [3]; V8, 30 DAA, all treatments with BF 428-5 (Table 9)): less than or equal to 218.8 cm
Ear Diameter (corn [3]; V8, 42.5 g ha^−1 a.i.): 54.3 mm
Ear Length (corn [3]; V8, 42.5 g ha^−1 a.i.): 27.8 cm
Yield (corn [3]; V8, 42.5 g ha^−1 a.i.): 5762.2 kg/ha
Height (shoot length) (corn [3]; V8, 42.5 g ha^−1 a.i., 30 DAA): 214.6 cm
Population of corn plants 60,000 plants/ha, kg/corn plant (corn [3]; V8, 42.5 g ha^−1 a.i.): 0.096 kg/corn plant
Population of corn plants 100,000 plants/ha, kg/corn plant (corn [3]; V8, 42.5 g ha^−1 a.i.): 0.096 kg/corn plant
Yield estimates 100,000 plants/ha (corn [3]; V8, 42.5 g ha^−1 a.i.): 9603.7 kg/ha
Increased Yield (corn [3]; V8, 42.5 g ha^−1 a.i.): 89.2%
Ear Diameter (corn [3]; V8, 85 g ha^−1 a.i.): 53.9 mm
Ear Length (corn [3]; V8, 85 g ha^−1 a.i.): 27.3 cm
Yield (corn [3]; V8, 85 g ha^−1 a.i.): 4355.6 kg/ha
Height (shoot length) (corn [3]; V8, 85 g ha^−1 a.i., 30 DAA): 218.8 cm
Population of corn plants 60,000 plants/ha, kg/corn plant (corn [3]; V8, 85 g ha^−1 a.i.): 0.073 kg/corn plant
Population of corn plants 100,000 plants/ha, kg/corn plant (corn [3]; V8, 85 g ha^−1 a.i.): 0.073 kg/corn plant
Yield estimates 100,000 plants/ha (corn [3]; V8, 85 g ha^−1 a.i.): 7259.3 kg/ha
Increased Yield (corn [3]; V8, 85 g ha^−1 a.i.): 43.0%
Ear Diameter (corn [3]; V8, 127.5 g ha^−1 a.i.): 54.2 mm
Ear Length (corn [3]; V8, 127.5 g ha^−1 a.i.): 27.2 cm
Yield (corn [3]; V8, 127.5 g ha^−1 a.i.): 4968.9 kg/ha
Height (shoot length) (corn [3]; V8, 127.5 g ha^−1 a.i., 30 DAA): 217.8 cm
Population of corn plants 60,000 plants/ha, kg/corn plant (corn [3]; V8, 127.5 g ha^−1 a.i.): 0.083 kg/corn plant
Population of corn plants 100,000 plants/ha, kg/corn plant (corn [3]; V8, 127.5 g ha^−1 a.i.): 0.083 kg/corn plant
Yield estimates 100,000 plants/ha (corn [3]; V8, 127.5 g ha^−1 a.i.): 8281.5 kg/ha
Increased Yield (corn [3]; V8, 127.5 g ha^−1 a.i.): 63.2%
yield increases (corn [3]; V8, estimation at 100,000 plants per hectare vs control at normal density of sowing (Table 10)): more than 43%
effects on the corn plant (corn [4]; V6): reduction in shoot length, increased formation of adventitious roots, strengthening of the stem, strengthening of the root system, increased ventilation in the culture, proper development of male and female inflorescences
effect on length and diameter of ears of corn (corn [4]; V6 (Table 11)): does not reduce
yield reduction (corn [4]; V6 (Table 11)): no yield reduction
Ear Diameter (corn [4]; V6, 42.5 g ha^−1 a.i.): 38.4 mm
Ear Length (corn [4]; V6, 42.5 g ha^−1 a.i.): 23.9 cm
Yield (corn [4]; V6, 42.5 g ha^−1 a.i.): 3126.7 kg/ha
Height (shoot length) (corn [4]; V6, 42.5 g ha^−1 a.i.): 206.0 cm
Population of corn plants 60,000 plants/ha, kg/corn plant (corn [4]; V6, 42.5 g ha^−1 a.i.): 0.052 kg/corn plant
Population of corn plants 100,000 plants/ha, kg/corn plant (corn [4]; V6, 42.5 g ha^−1 a.i.): 0.052 kg/corn plant
Yield estimates 100,000 plants/ha (corn [4]; V6, 42.5 g ha^−1 a.i.): 5211.2 kg/ha
Increased Yield (corn [4]; V6, 42.5 g ha^−1 a.i.): 80.5%
Ear Diameter (corn [4]; V6, 85 g ha^−1 a.i.): 37.0 mm
Ear Length (corn [4]; V6, 85 g ha^−1 a.i.): 22.9 cm
Yield (corn [4]; V6, 85 g ha^−1 a.i.): 1902.2 kg/ha
Height (shoot length) (corn [4]; V6, 85 g ha^−1 a.i.): 205.8 cm
Population of corn plants 60,000 plants/ha, kg/corn plant (corn [4]; V6, 85 g ha^−1 a.i.): 0.032 kg/corn plant
Population of corn plants 100,000 plants/ha, kg/corn plant (corn [4]; V6, 85 g ha^−1 a.i.): 0.032 kg/corn plant
Yield estimates 100,000 plants/ha (corn [4]; V6, 85 g ha^−1 a.i.): 3170.3 kg/ha
Increased Yield (corn [4]; V6, 85 g ha^−1 a.i.): 9.8%
Ear Diameter (corn [4]; V6, 127.5 g ha^−1 a.i.): 37.9 mm
Ear Length (corn [4]; V6, 127.5 g ha^−1 a.i.): 21.5 cm
Yield (corn [4]; V6, 127.5 g ha^−1 a.i.): 2500.0 kg/ha
Height (shoot length) (corn [4]; V6, 127.5 g ha^−1 a.i.): 200.3 cm
Population of corn plants 60,000 plants/ha, kg/corn plant (corn [4]; V6, 127.5 g ha^−1 a.i.): 0.042 kg/corn plant
Population of corn plants 100,000 plants/ha, kg/corn plant (corn [4]; V6, 127.5 g ha^−1 a.i.): 0.042 kg/corn plant
Yield estimates 100,000 plants/ha (corn [4]; V6, 127.5 g ha^−1 a.i.): 4166.7 kg/ha
Increased Yield (corn [4]; V6, 127.5 g ha^−1 a.i.): 44.3%
yield increases (corn [4]; V6, estimation at 100,000 plants per hectare vs control at normal density of sowing (Table 12)): more than 9.8%
